Like-named read-outs stand apart in the source and are kept apart here.
Target: FXR (Homo sapiens (Human), UniProt Q96RI1)
Assay: transient human FXR/Gal4-luciferase reporter assay
Format: cell-based
Description: A Gal4-hFXR fusion construct reporter system was used as the primary assay to characterize compound activity. A construct including 5 copies of the Gal4 promoter response element upstream of a firefly luciferase reporter cDNA was stably expressed in HEK293 cells. This reporter cell line was maintained in Dulbecco's Modified Eagle's medium (DMEM; Gibco) supplemented with 1% penicillin-streptomycin (P/S) solution, 500 μg/mL Zeocin and 10% charcoal/dextran-treated fetal bovine serum (cs-FBS) at 37° C. in a humidified 5% CO2 atmosphere. Another plasmid was constructed in which the human cytomegalovirus promoter in the pcDNA3.1 vector directs the expression of the cDNA encoding a fusion protein comprised of the DNA binding domain from the Gal4 transcription factor fused to the ligand binding domain from human FXR.
The day prior to transfection, the reporter cells in culture are detached from the plate with trypsin and plated into a T75 flask at a sufficient density to achieve approximately 90% confluence the next morning. The transfection reagents are prepared by separately diluting 25 μg of the pcDNA3.1-Gal4-FXR plasmid into 1.87 mL of Opti-MEM (Thermo-Fisher), and 40 μL of Lipofectamine 2000 (Thermo-Fisher) into 1.87 mL of Opti-MEM, and then adding the diluted DNA solution into the diluted Lipofectamine 2000 solution and incubating at room temperature for 15-20 minutes. The mixture is further diluted with 10 mL of a solution comprised of DMEM, 10% cs-FBS, and 1% P/S immediately prior to transferring to the cells. The maintenance culture media is aspirated from the cells and the final transfection mixture is added before the cells are incubated overnight at 37° C. in a humidified 5% CO2 atmosphere. This protocol can be scaled up, and the transiently transfected cells can be cryopreserved in an assay-ready format.
For compound testing, 100 nL of the compounds (serial dilutions in DMSO) are dispensed with an Echo acoustic dispenser (Labcyte) into the wells of a Corning/Costar clear bottom 384-well white plate. The transfected cells are harvested, counted, and diluted such that 10-25,000 cells in 25 μL are plated into each well of the 384-well compound assay plate. The compound-treated cells are incubated overnight at 37° C. in a humidified 5% CO2 atmosphere. The next morning 25 μL of Steady-Glo (Promega) are added to each well of the plate, the mixture is incubated for 15 min. with shaking, and luminescence is measured on an Envision (Perkin Elmer) plate reader.

[1] = Gal4-hFXR fusion construct, HEK293 reporter cells, response relative to 8 μM GW-4064

FXR, sequence (Q96RI1 262-486): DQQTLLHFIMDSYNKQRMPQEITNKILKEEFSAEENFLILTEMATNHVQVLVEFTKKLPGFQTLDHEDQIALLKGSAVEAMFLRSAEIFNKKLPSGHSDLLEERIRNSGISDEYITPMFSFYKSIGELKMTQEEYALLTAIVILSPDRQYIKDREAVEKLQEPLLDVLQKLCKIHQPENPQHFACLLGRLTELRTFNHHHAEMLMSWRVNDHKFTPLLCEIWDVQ

| SMILES | EC50 [1] | EC50 |
| --- | --- | --- |
| CC(C)Oc1ccc(-c2ccnc(N(CC34CCC(c5noc(C(C)(F)F)n5)(CC3)CC4)C(=O)OC(C)(C)C(F)(F)F)c2)cc1 [Example 610, 1,1,1-trifluoro-2-methylpropan-2-yl ((4-(5-(1,1-difluoroethyl)-1,2,4-oxadiazol-3-yl)bicyclo[2.2.2]octan-1-yl)methyl)(4-(4-isopropoxyphenyl)pyridin-2-yl)carbamate] | 47 nM | – |
| CC(C)(O)c1ccc(-c2cccc(N(CC34CCC(c5noc(C(C)(F)F)n5)(CC3)CC4)C(=O)C34CC(C#N)(C3)C4)c2)cc1 [Example 585, 3-cyano-N-((4-(5-(1,1-difluoroethyl)-1,2,4-oxadiazol-3-yl)bicyclo[2.2.2]octan-1-yl)methyl)-N-(4′-(2-hydroxypropan-2-yl)-[1,1′-biphenyl]-3-yl)bicyclo[1.1.1]pentane-1-carboxamide] | 18 nM | – |
| O=C(N(CC12CCC(c3nc(C4CC4)no3)(CC1)CC2)c1cccc(-c2nc(Cl)nn3cccc23)c1)C12CC(F)(C1)C2 [Example 315, N-(3-(2-chloropyrrolo[2,1-f][1,2,4]triazin-4-yl)phenyl)-N-((4-(3-cyclopropyl-1,2,4-oxadiazol-5-yl)bicyclo[2.2.2]octan-1-yl)methyl)-3-fluorobicyclo[1.1.1]pentane-1-carboxamide] | 913 nM | – |
| O=C(N(CC12CCC(c3nc(C4CC4)no3)(CC1)CC2)c1cccc(-c2ccnc(OC3CC3)n2)c1)C12CC(F)(C1)C2 [Example 337, N-(3-(2-cyclopropoxypyrimidin-4-yl)phenyl)-N-((4-(3-cyclopropyl-1,2,4-oxadiazol-5-yl)bicyclo[2.2.2]octan-1-yl)methyl)-3-fluorobicyclo[1.1.1]pentane-1-carboxamide] | 380 nM | – |
| CCOc1ccc(-c2cccc(N(CC34CCC(c5nc(C6CC6)no5)(CC3)CC4)C(=O)C34CC(F)(C3)C4)c2)nn1 [Example 283, N-((4-(3-cyclopropyl-1,2,4-oxadiazol-5-yl)bicyclo[2.2.2]octan-1-yl)methyl)-N-(3-(6-ethoxypyridazin-3-yl)phenyl)-3-fluorobicyclo[1.1.1]pentane-1-carboxamide] | 234 nM | – |
| CC(C)Oc1ccc(-c2cc(N(CC34CCC(c5noc(C6(F)CC6)n5)(CC3)CC4)C(=O)NC(C)(C)C)ccc2F)cc1 [Example 586, 3-(tert-butyl)-1-(6-fluoro-4′-isopropoxy-[1,1′-biphenyl]-3-yl)-1-((4-(5-(1-fluorocyclopropyl)-1,2,4-oxadiazol-3-yl)bicyclo[2.2.2]octan-1-yl)methyl)urea] | 36 nM | – |
| CCOc1ncc(-c2cncc(N(CC34CCC(c5nc(C6CC6)no5)(CC3)CC4)C(=O)C34CC(F)(C3)C4)c2)cn1 [Example 423, N-((4-(3-cyclopropyl-1,2,4-oxadiazol-5-yl)bicyclo[2.2.2]octan-1-yl)methyl)-N-(5-(2-ethoxypyrimidin-5-yl)pyridin-3-yl)-3-fluorobicyclo[1.1.1]pentane-1-carboxamide] | 238 nM | – |
| COc1ccc(C23CCC(CN(C(=O)C45CC(F)(C4)C5)c4cccc(-c5ccc6nc(C)sc6c5)c4)(CC2)CO3)cc1 [Example 556, 3-Fluoro-N-((1-(4-methoxyphenyl)-2-oxabicyclo[2.2.2]octan-4-yl)methyl)-N-(3-(2-methylbenzo[d]thiazol-6-yl)phenyl)bicyclo[1.1.1]pentane-1-carboxamide] | 816 nM | – |
| N#Cc1ccc(-c2cccc(N(CC34CCC(c5nc(C6CC6)no5)(CC3)CC4)C(=O)C34CC(F)(C3)C4)c2)cc1 [Example 302, N-(4′-cyano-[1,1′-biphenyl]-3-yl)-N-((4-(3-cyclopropyl-1,2,4-oxadiazol-5-yl)bicyclo[2.2.2]octan-1-yl)methyl)-3-fluorobicyclo[1.1.1]pentane-1-carboxamide] | 861 nM | – |
| Cc1cnn2c(-c3cccc(N(CC45CCC(c6nc(C7CC7)no6)(CC4)CC5)C(=O)C45CC(F)(C4)C5)c3)cnc2c1 [Example 319, N-((4-(3-cyclopropyl-1,2,4-oxadiazol-5-yl)bicyclo[2.2.2]octan-1-yl)methyl)-3-fluoro-N-(3-(7-methylimidazo[1,2-b]pyridazin-3-yl)phenyl)bicyclo[1.1.1]pentane-1-carboxamide] | 161 nM | – |
| CCOc1ncc(-c2cccc(N(CC34CCC(c5noc(C6(C)COC6)n5)(CC3)CC4)C(=O)[C@H]3C[C@@H](OC)C3)c2)cn1 [Example 518, (cis)-N-(3-(2-ethoxypyrimidin-5-yl)phenyl)-3-methoxy-N-((4-(5-(3-methyloxetan-3-yl)-1,2,4-oxadiazol-3-yl)bicyclo[2.2.2]octan-1-yl)methyl)cyclobutane-1-carboxamide] | 1290 nM | – |
| COc1ncc(-c2cccc(N(CC34CCC(c5nc(C(C)(C)C)no5)(CC3)CC4)C(=O)C34CC(F)(C3)C4)c2)cn1 [Example 363, N-((4-(3-(tert-butyl)-1,2,4-oxadiazol-5-yl)bicyclo[2.2.2]octan-1-yl)methyl)-3-fluoro-N-(3-(2-methoxypyrimidin-5-yl)phenyl)bicyclo[1.1.1]pentane-1-carboxamide] | 70 nM | – |
| CC(C)(C)c1nc(C23CCC(CN(C(=O)C45CC(F)(C4)C5)c4cc(-c5ccc6[nH]c(=O)oc6c5)ccn4)(CC2)CC3)no1 [Example 540, N-((4-(5-(tert-butyl)-1,2,4-oxadiazol-3-yl)bicyclo[2.2.2]octan-1-yl)methyl)-3-fluoro-N-(4-(2-oxo-2,3-dihydrobenzo[d]oxazol-6-yl)pyridin-2-yl)bicyclo[1.1.1]pentane-1-carboxamide] | – | 71 nM |
| CC(F)(F)c1nc(C23CCC(CN(C(=O)C45CC(F)(C4)C5)c4cccc(-c5ccc(OC(F)F)cc5)c4)(CC2)CC3)no1 [Example 528, N-((4-(5-(1,1-difluoroethyl)-1,2,4-oxadiazol-3-yl)bicyclo[2.2.2]octan-1-yl)methyl)-N-(4′-(difluoromethoxy)-[1,1′-biphenyl]-3-yl)-3-fluorobicyclo[1.1.1]pentane-1-carboxamide] | – | 73 nM |
| CO[C@H]1C[C@@H](C(=O)N(CC23CCC(c4noc(C(C)(C)C)n4)(CC2)CC3)c2cccc(-c3ccc(NS(C)(=O)=O)cc3)c2)C1 [Example 514, (1S,3S)—N-((4-(5-(tert-butyl)-1,2,4-oxadiazol-3-yl)bicyclo[2.2.2]octan-1-yl)methyl)-3-methoxy-N-(4′-(methylsulfonamido)-[1,1′-biphenyl]-3-yl)cyclobutane-1-carboxamide] | 2260 nM | – |
| CC(C)(O)c1ccc(-c2cccc(N(CC34CCC(c5noc(C(C)(C)F)n5)(CC3)CC4)C(=O)N3CC(O)(C(F)(F)F)C3)c2)cc1 [Example 643, N-((4-(5-(2-fluoropropan-2-yl)-1,2,4-oxadiazol-3-yl)bicyclo[2.2.2]octan-1-yl)methyl)-3-hydroxy-N-(4′-(2-hydroxypropan-2-yl)-[1,1′-biphenyl]-3-yl)-3-(trifluoromethyl)azetidine-1-carboxamide] | – | 235 nM |
| COc1ccc(-c2cccc(N(CC34CCC(c5cnc(C(F)(F)F)nc5)(CC3)OC4)C(=O)C34CC(F)(C3)C4)c2)cc1 [Example 420, 3-fluoro-N-(4′-methoxy-[1,1′-biphenyl]-3-yl)-N-((1-(2-(trifluoromethyl)pyrimidin-5-yl)-2-oxabicyclo[2.2.2]octan-4-yl)methyl)bicyclo[1.1.1]pentane-1-carboxamide] | 802 nM | – |
